Test results reported in patent US20250195415A1, “BIODEGRADABLE CONTROLLED RELEASE ANTIVIRAL AGENT IMPLANTS” (Yale University, priority 2022, published 2025).
Like-named read-outs stand apart in the source and are kept apart here.

Experiments:
[1] = Pharmacokinetic studies for implants and NPs in Hu-PBL mice; type: in vivo; conditions: for concentration at 42 d / concentration at 56 d / AUC(0-t): NSG (NOD.Cg-Prkdcscid Il2rgtm1Wjl/SzJ), Hu-PBL, mouse; for concentration at 42 d / concentration at 56 d: plasma; for concentration at 42 d: intraperitoneal, day 42; for AUC(0-t): serum
Method: NOD.Cg-Prkdcscid Il2rgtm1 Wjl/SzJ (NSG) mice were purchased from the Jackson Laboratory (Bar Harbor, ME) and bred and maintained at Yale University (New Haven, CT) according to guidelines established by the Institutional Animal Committee. All experiments were performed according to protocols approved by the Institutional Review Board and the Institutional Animal Care and Use Committee of Yale University. NSG-Hu-PBL mice were engrafted. Briefly, 10×10^6 peripheral blood mononuclear cells (PBMC), purified by Ficoll density gradient centrifugation of healthy donor blood (obtained from the New York Blood Bank) were injected intraperitoneally in a 200 μl volume into 6- to 12-week-old NSG mice (Jackson Laboratory), using a 1 cm^3 syringe and 25-gauge needle. Mice were retro-orbitally bled to collect 70-100 μl of blood.
Two NSG mice were injected intraperitoneally (i.p.) with Compound I-NP (190 mg/kg) and EFdA (10 mg/kg) suspended in sterile saline solution. The blood samples were collected at predetermined time points from the ocular venous plexus by retro-orbital venipuncture and used for subsequent HPLC analysis.
Mice were anesthetized by intraperitoneal injection of ketamine (80 mg/kg) and xylazine (12 mg/kg) in PBS (10 ml/kg) based on individual mouse body weight. After anesthetizing, approximately 1-2 cm square of the dorsal skin was shaved using an electric hair clipper, the area was cleaned with ethanol and disinfected with betadine. Using a sterile disposable surgical blade, an incision of 4-5 mm was made through the skin. Gently, 2 cm×3 cm subcutaneous pockets were created with forceps and implants loaded with EFdA and Compound I were co-inserted at the same site. The opening was sutured using absorbable sutures followed by subcutaneous administration of 0.05 mg/kg buprenorphine. The animals were kept warm using the temperature-controlled heating pads until they regained consciousness. Toxicity was evaluated by clinical observations, eageside observations (twice daily), and body weight (at least weekly).
To determine dose-dependent serum agent concentrations, in vivo pharmacokinetics of Compound I and EFdA implants, and Compound I-NP and EFdA-NP were investigated in Hu-PBL mice. The blood samples were collected at predetermined time points from the ocular venous plexus by retro orbital venipuncture and serum was used for subsequent HPLC analysis.

[2] = target: T1, human mitochondrial DNA polymerase (Homo sapiens, UniProt P54098); conditions: previous studies; cited from earlier work
T1 sequence (P54098 1-1239): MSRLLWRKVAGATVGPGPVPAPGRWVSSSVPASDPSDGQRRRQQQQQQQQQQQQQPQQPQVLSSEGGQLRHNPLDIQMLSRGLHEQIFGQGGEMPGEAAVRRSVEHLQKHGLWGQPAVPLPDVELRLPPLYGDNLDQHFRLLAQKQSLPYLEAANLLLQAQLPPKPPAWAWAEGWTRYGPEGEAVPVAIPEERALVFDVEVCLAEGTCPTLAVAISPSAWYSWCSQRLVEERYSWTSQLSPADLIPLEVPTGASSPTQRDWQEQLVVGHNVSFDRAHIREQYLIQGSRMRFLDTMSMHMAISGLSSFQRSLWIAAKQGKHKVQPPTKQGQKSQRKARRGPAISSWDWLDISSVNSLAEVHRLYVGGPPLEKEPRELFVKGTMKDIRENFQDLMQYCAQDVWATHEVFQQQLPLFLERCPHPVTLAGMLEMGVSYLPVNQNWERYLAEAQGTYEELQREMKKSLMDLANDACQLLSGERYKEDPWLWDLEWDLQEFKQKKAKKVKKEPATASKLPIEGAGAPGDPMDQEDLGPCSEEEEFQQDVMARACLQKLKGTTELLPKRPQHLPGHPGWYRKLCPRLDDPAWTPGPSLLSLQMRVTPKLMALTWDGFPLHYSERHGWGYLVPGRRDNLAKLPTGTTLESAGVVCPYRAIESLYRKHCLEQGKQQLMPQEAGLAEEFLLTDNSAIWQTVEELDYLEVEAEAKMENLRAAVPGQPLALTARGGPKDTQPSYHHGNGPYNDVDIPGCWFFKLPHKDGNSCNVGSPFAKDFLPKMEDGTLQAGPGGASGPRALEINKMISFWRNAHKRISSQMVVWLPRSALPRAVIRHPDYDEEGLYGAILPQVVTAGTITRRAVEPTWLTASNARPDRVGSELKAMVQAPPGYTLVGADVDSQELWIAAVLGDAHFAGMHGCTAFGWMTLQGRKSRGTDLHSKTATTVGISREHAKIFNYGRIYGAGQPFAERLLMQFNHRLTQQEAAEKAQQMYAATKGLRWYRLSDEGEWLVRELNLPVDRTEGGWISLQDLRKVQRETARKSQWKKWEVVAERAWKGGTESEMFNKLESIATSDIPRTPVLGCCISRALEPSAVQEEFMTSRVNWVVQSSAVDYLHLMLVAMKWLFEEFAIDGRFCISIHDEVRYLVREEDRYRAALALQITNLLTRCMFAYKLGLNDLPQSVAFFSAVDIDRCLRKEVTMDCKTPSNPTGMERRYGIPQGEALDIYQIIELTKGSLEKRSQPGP

[3] = rodents; cited from earlier work
[4] = test system: HIV-1; assay: HIV cellular assays (HIV cell culture), antiviral potency
[5] = test system: HIV-1; conditions: week 48, with FTC/TDF or ABC/3TC; cited from earlier work
[6] = In vitro drug release from poly(EB-co-DO) implants with mathematical diffusion model; type: physicochemical; conditions: for Diffusion Coefficient: 28 % Loading, P4 (37k, 20% DO) implants
Method: Drug-loaded poly(EB-co-DO) implants (1 cm long, 2.4 mm diameter, 50 mg) were individually incubated in 1 mL of PBS solution (pH=7.4) containing 3% methyl-beta-cyclodextrin (M-β-CD) at 37° C. At selected time points, the buffer solution was completely replaced with fresh solution of the same composition. The collected buffer solutions, in which the implant had been continuously and completely bathed for a period of time, were flash frozen and lyophilized. High-performance liquid chromatography (HPLC) was then used to determine the representative drug loading of implants in each group.
The samples were then centrifuged at 3000 rpm for 5 min to draw out any salts and M-β-CD. The supernatant was passed through 0.22 um syringe filters before being analyzed by HPLC for drug content.
An Agilent column (883995-906, ZORBAX StableBond 300 C8, 4.6×150 mm, 5 μm) and Shimadzu HPLC system (LC-2030C) with a UV-Vis detector was used for drug quantitation. […] Initial solvent B concentration was set at 5% and allowed to increase to 100% by the 5th minute. Flow was maintained for 5 min at this level before dropping to 5% after 12 min, which was maintained until the end of the run at 13 minutes. For analysis of DTG drug release, Solvent A was 0.1% TFA in HPLC grade water, and solvent B was 100% methanol. Initial solvent B concentration was set at 55% and increased to 60% for the 6-7th minute before being brought back down to 55% for the 7-10th minute. All three drugs were detected using a UV detector at a wavelength of 240 nm. […] A volume of 45 μl was injected for each sample run.
Fick's second law of diffusion appropriately models drug transport across polymeric matrixes by proportionally relating the diffusion rate at time, t, to the concentration gradient of drug in the implant, ∂C/∂r. As shown in the equation below (1), a one-dimensional, radial release from our cylindrical implants was adopted, with a constant drug diffusion coefficient, D.
The solution for the above partial differential equation requires specification of a set of initial conditions and boundary conditions. For the initial condition (t=0), a homogenous and uniform concentration of drug throughout the implant was adopted, C=C0. A symmetry boundary condition is further applied at the center of the implant (r=0) as flux across the plane of symmetry is zero, ∂C/∂r=0. Lastly, a perfect-sink boundary condition is applied at the surface of implant (r=R), C=0. […] In vitro release, then, is determined from the mass of drug in the implant at each time point subtracted from initial mass of drug within the implant (Co*V). Lastly, the diffusion coefficient is determined by fitting the cumulative drug release profile to data from in vitro drug release experiments and minimizing root mean squared error (RMSE).

[7] = cited from earlier work
[8] = cited from earlier work; remark: listed apart in the source
[9] = Biocompatibility study, subcutaneous implantation in mice; conditions: mouse, in vivo, sc
Method: To examine tissue responses and in vivo degradation of these implants, unloaded 20% DO implants (P4) were used and examined histological sections and polymer properties over a period of 8 months after subcutaneous implantation. Implants of ˜10 to 15 mg were implanted in the subdermal layer of 16 mice. […] implants were extracted every two months; half of the implants were used for histological examination while the other half were used to characterize the polymer using GPC and NMR (FIGS. 15A and 15B). […] This decrease in Mw (73%) during the first four months is slightly less than observed in vitro degradation, where there was an 84% decrease in Mw after four months of incubation in PBS buffer at 37° C. […] This trend can likely be attributed to the highly degradable PDO polymeric segments of the copolymer. In terms of structural integrity of the implants, the implants appeared intact at 8 months and were firm enough to be picked up by tweezers without damage to the implant.

## C#C[C@]1(CO)O[C@@H](n2cnc3c(N)nc(F)nc32)C[C@@H]1O [EFdA, 4′-Ethynyl-2-fluoro-2′-deoxyadenosine]
[1]; NPs, day 14-post infection
  increase in serum concentration: 21%
[1]; NPs, over the next three weeks
  decline in serum concentration after day 21: two-fold decline
[1]; NPs, single i.p. dose, co-administered
  clearance: 1.2 mL/h/kg
[1]; NPs, read-out: plasma level maintained at end of experiment
  concentration at 42 d: ≥ 4000 ng/mL
[1]; NPs, read-out: plasma level maintained at end of experiment (molar)
  concentration at 42 d: ≥ 13 µM
[1]; subcutaneous, implants, day 56, read-out: sustained plasma concentration at end of experiment
  concentration at 56 d: 7500 ng/mL
[1]; subcutaneous, implants, day 56, read-out: sustained plasma concentration at end of experiment (molar)
  concentration at 56 d: 25 µM
[1]; ip, NPs, single i.p. dose, co-administered
  AUC(0-t): 6980 µg·h/mL
[1]; subcutaneous, co-implanted poly(PDL-co-DO) implants, 56 d
  AUC(0-t): 9130 µg·h/mL
[1]; implants, day 14
  serum level fold higher than the cellular EC50: 11,000 fold
[1]; implants, day 35 post-implantation
  fold decrease in serum concentration compared to day 28: 5 fold
[1]; implants, day 56
  plasma concentration fold above the EC90: ~1600 fold
[2]
  substrate for human mitochondrial DNA polymerase: poor substrate
[3]
  time of sustained levels of agent from implants: up to 6 months
[4]; Human immunodeficiency virus 1, read-out: effective concentrations (EC50)
  EC50: 1.9 nM
[4]; calculated from EC50 with Hill slope of 1
  IC90 / EC90 in HIV cell culture: 17.1 nM

## Cn1c(Cn2ccc(C(F)(F)F)c(Oc3cc(Cl)cc(C#N)c3)c2=O)n[nH]c1=O [doravirine]
[5]
  patients with plasma HIV-1 RNA of less than 50 copies/mL: 84%

## C[C@@H]1C[C@H]2[C@@H]3CCC4=CC(=O)C=C[C@]4(C)[C@@]3(F)[C@@H](O)C[C@]2(C)[C@@]1(O)C(=O)CO [DEX, dexamethasone]
[6]
  Diffusion Coefficient: 3.7 × 10^−9 cm^2/sec
[7]
  log P: 1.6-1.9
[8]; 35% DEX loading
  diffusion coefficient in porous EVAc implants: 2.0×10^−10 cm^2/sec
[8]; radiolabeled DEX in saline, 37° C.
  diffusion coefficient in water: 5.2×10^−6 cm^2/sec

## C[C@@H]1CCO[C@H]2Cn3cc(C(=O)NCc4ccc(F)cc4F)c(=O)c(O)c3C(=O)N12 [DTG, dolutegravir]
[6]
  Diffusion Coefficient: 1.7 × 10^−9 cm^2/sec
[6]; 28% loading, P4 implants
  burst release rates compared to DEX: three-fold reduction in burst release rates
  cumulative in vitro release compared to DEX from comparable implants: slower cumulative release

## poly(ethylene brassylate-co-dioxanone) [poly(EB-co-DO) implants]
[9]
  tolerability after subcutaneous implantation: well tolerated
